Measurements from US20220125052A1, “Herbicidal Compositions” (SYNGENTA CROP PROTECTION AG, priority 2019, published 2022).

Tests used:
Test in all cases: Post-emergence efficacy (B1), glasshouse spray test
Type in all cases: in vivo
[1] = tested on: Lolium perenne (LOLPE); settings: evaluated after 13 days, 100=total damage to plant, 0=no damage to plant
Experimental: (§1) B1 Post-emergence efficacy Seeds of a variety of test species were sown in standard laom-based soil in pots:—Ipomoea hederacea (IPOHE), Euphorbia heterophylla (EPHHL), Chenopodium album (CHEAL), Amaranthus palmeri (AMAPA), Lolium perenne (LOLPE), Digitaria sanguinalis (DIGSA), Eleusine indica (ELEIN), Echinochloa crus-galli (ECHCG), Setaria faberi (SETFA). After cultivation for 14 days (post-emergence) under controlled conditions in a glasshouse (at 24/16° C., day/night; 14 hours light; 65% humidity), the plants were sprayed with an aqueous spray solution derived from the dissolution of the technical active ingredient Formula (I) in a small amount of acetone and a special solvent and emulsifier mixture referred to as IF50 (11.12% Emulsogen EL360 TM+44.44% N-methylpyrrolidone+44.44% Dowanol DPM glycol ether), to create a 50 g/l solution which was then diluted to required concentration using 0.25% or 1% Empicol ESC70 (Sodium lauryl ether sulphate)+1% ammonium sulphate as diluent. The delivery of the aqueous spray solution was via a laboratory track sprayer which delivered the aqueous spray composition at a rate of 200 litres per hectare, using a flat fan nozzle (Teejet 11002VS) and an application volume of 200 litre/ha (at 2 bar). The test plants were then grown in a glasshouse under controlled conditions (at 24/16° C., day/night; 14 hours light; 65% humidity) and watered twice daily. After 13 days the test was evaluated (100=total damage to plant; 0=no damage to plant).

[2] = tested on: Eleusine indica (ELEIN); settings: 500 g/Ha, evaluated after 13 days, 100=total damage to plant, 0=no damage to plant
Experimental: as §1

[3] = tested on: Setaria faberi (SETFA); settings: 500 g/Ha, evaluated after 13 days, 100=total damage to plant, 0=no damage to plant
Experimental: as §1

[4] = tested on: Euphorbia heterophylla (EPHHL); settings: 500 g/Ha, evaluated after 13 days, 100=total damage to plant, 0=no damage to plant
Experimental: as §1

[5] = tested on: Echinochloa crus-galli (ECHCG); settings: 500 g/Ha, evaluated after 13 days, 100=total damage to plant, 0=no damage to plant
Experimental: as §1

[6] = tested on: Digitaria sanguinalis (DIGSA); settings: 500 g/Ha, evaluated after 13 days, 100=total damage to plant, 0=no damage to plant
Experimental: as §1

[7] = tested on: Amaranthus palmeri (AMAPA); settings: 500 g/Ha, evaluated after 13 days, 100=total damage to plant, 0=no damage to plant
Experimental: as §1

[8] = tested on: Chenopodium album (CHEAL); settings: 500 g/Ha, evaluated after 13 days, 100=total damage to plant, 0=no damage to plant
Experimental: as §1

O=C(O)CC[n+]1ccc(-c2ncccn2)cn1.[Cl-] [Compound 1.010, 3-(4-pyrimidin-2-ylpyridazin-1-ium-1-yl)propanoic acid chloride]
90: Control of weed species after post-emergence application: LOLPE ([1]; 500 g/Ha)

O=C(O)CC[n+]1ccc(-c2ncccn2)cn1.[Br-] [Compound 1.021, 3-(4-pyrimidin-2-ylpyridazin-1-ium-1-yl)propanoic acid bromide]
100: Control of weed species after post-emergence application: ELEIN [2] | Control of weed species after post-emergence application: SETFA [3] | Control of weed species after post-emergence application: EPHHL [4] | Control of weed species after post-emergence application: ECHCG [5] | Control of weed species after post-emergence application: DIGSA [6]

O=C(O)CC[n+]1ccc(-c2ncccn2)cn1 [Compound 1.023, 3-(4-pyrimidin-2-ylpyridazin-1-ium-1-yl)propanoic acid 2,2,2-trifluoroacetate]
90%: pest or weed control at 500 g/ha ([1]; Lolium perenne, 312 h, read-out: Control of weed species after post-emergence application: LOLPE)

O=C(O)CC[n+]1ccc(-c2cccnn2)cn1.[Cl-] [Compound 1.027, 3-(4-pyridazin-3-ylpyridazin-1-ium-1-yl)propanoic acid chloride]
100: Control of weed species after post-emergence application: AMAPA [7] | Control of weed species after post-emergence application: CHEAL [8] | Control of weed species after post-emergence application: SETFA [3] | Control of weed species after post-emergence application: EPHHL [4] | Control of weed species after post-emergence application: ECHCG [5] | Control of weed species after post-emergence application: DIGSA [6]

Cl.N[C@@H](CCC[n+]1ccc(-c2ncccn2)cn1)C(=O)O.[Cl-] [Compound 1.030, [(1S)-1-carboxy-4-(4-pyrimidin-2-ylpyridazin-1-ium-1-yl)butyl]-ammonium dichloride]
100: Control of weed species after post-emergence application: SETFA [3] | Control of weed species after post-emergence application: ECHCG [5] | Control of weed species after post-emergence application: DIGSA [6]
